Source: article PMC12802172, “Mechanistic insights into dual-active liver and blood-stage antiplasmodials” (mBio, 2025)
Where two headings read alike, the source gives them in different places.

Columns and labels:
[1] = tested on: T1, Plasmodium falciparum CAM (PH0212C); experiment: microbe, parasite or virus in culture; parameters: species or system P. falciparum in human erythrocytes; asexual blood-stage growth inhibition, synchronized ring-stage parasites, SYBR Green I fluorescence; details: Erythrocyte, 72 h, read-out: P. falciparum asexual blood stage activity (IC50 uM) / CAM (PH0212C) / IC50
T1 construct: Cam/PH0212C
Method: (§1) Compound dose-response assays were performed in flat-bottom 96-well plates. Tightly synchronized ring-stage parasites were adjusted to 1% parasitemia at 1% hematocrit and exposed to a twofold serial dilution of the compounds plated using a Tecan D300e digital dispenser. As controls, the assay plate included untreated parasites and parasites treated with 700 nM DHA only. After 72 h of incubation, parasite growth was measured by lysing the cells with a 2 × lysis buffer containing 10 mM Tris-HCl, 5 mM EDTA, 0.1% (wt/vol) saponin, and 1% (vol/vol) Triton X-100, supplemented with 2 × SYBR Green I (Molecular Probes). Fluorescence was recorded using a FluorStar Omega v5.11 plate reader. IC50 values were determined using GraphPad Prism v9, and statistical significance was assessed with a two-sided Mann-Whitney U test. Each assay was conducted in technical duplicate, with a minimum of three biological replicates, as described in the figure legends. P. falciparum parasites were cultured with fresh human erythrocytes at 3% hematocrit in RPMI 1640 medium (Gibco), supplemented with 0.5% Albumax II (Gibco), 25 mM HEPES (Sigma), 1× GlutaMAX (Gibco), and 25 μg/mL gentamicin (Gibco). The following parasite strains were used: 3D7, Dd2 (MR4, MRA-156, T. Wellems), GB4 (MR4, MRA-925, T. Wellems), UG659 (P. Rosenthal), Cam/PH0212C (R. Fairhurst), and Cam3.II/ PH0306-C (R. Fairhurst). The cultures were maintained under a controlled tri-gas atmosphere of 1% O2, 3% CO2, and 96% N2. Human erythrocytes were ethically sourced from healthy, anonymous donors through the Scottish National Blood Transfusion Service (SNBTS) or the National Health Services Blood and Transplant (NHSBT). The use of red blood cells was with approval from the University of Dundee Schools of Medicine and Life Sciences Research Ethics Committee, and the NHS Cambridgeshire Research Ethics Committee and Wellcome Sanger Institute Human Materials and Data Management Committee. Half-maximal growth inhibition concentrations were determined for the nine query compounds against chloroquine-sensitive (3D7) and multidrug-resistant (Dd2) parasites (Fig. 1B; Table S1). Compounds were further assessed against a panel of geographically diverse parasite strains, including two multidrug-resistant Cambodian isolates (resistant to artemisinin, chloroquine, and pyrimethamine) and strains from Uganda (UG659) and Ghana (GB4). […] However, a reduction in sensitivity to TCMDC-134122 was noted across all strains when compared to Dd2.

P. falciparum Dd2 = tested on: T2, P. falciparum Dd2; experiment: microbe, parasite or virus in culture; parameters: species or system P. falciparum in human erythrocytes; asexual blood-stage growth inhibition, synchronized ring-stage parasites, SYBR Green I fluorescence; details: Plasmodium falciparum, DD2, Erythrocyte, 72 h
T2 construct: Dd2
Method: as §1

P. falciparum 3D7 = tested on: T3, P. falciparum 3D7; experiment: microbe, parasite or virus in culture; parameters: species or system P. falciparum in human erythrocytes; asexual blood-stage growth inhibition, synchronized ring-stage parasites, SYBR Green I fluorescence; details: Plasmodium falciparum, 3D7, Erythrocyte, 72 h; initial laboratory strain experiment (Table S1); read-out: P. falciparum asexual blood stage activity (IC50 uM) / 3D7
T3 construct: 3D7
Method: as §1

[2] = tested on: T4, Plasmodium falciparum UG654 (UG659 in methods); experiment: microbe, parasite or virus in culture; parameters: species or system P. falciparum in human erythrocytes; asexual blood-stage growth inhibition, synchronized ring-stage parasites, SYBR Green I fluorescence; details: Erythrocyte, 72 h, read-out: P. falciparum asexual blood stage activity (IC50 uM) / UG654 / IC50
T4 construct: UG659
Method: as §1

[3] = tested on: T5, Plasmodium falciparum GB4; experiment: microbe, parasite or virus in culture; parameters: species or system P. falciparum in human erythrocytes; asexual blood-stage growth inhibition, synchronized ring-stage parasites, SYBR Green I fluorescence; details: Erythrocyte, 72 h, read-out: P. falciparum asexual blood stage activity (IC50 uM) / GB4 / IC50
T5 construct: GB4
Method: as §1

[4] = tested on: T6, Plasmodium falciparum Cam3.II; experiment: microbe, parasite or virus in culture; parameters: species or system P. falciparum in human erythrocytes; asexual blood-stage growth inhibition, synchronized ring-stage parasites, SYBR Green I fluorescence; details: Erythrocyte, 72 h, read-out: P. falciparum asexual blood stage activity (IC50 uM) / Cam3.II / IC50
T6 construct: Cam3.II
Method: as §1

[5] = molecular target: T7, P. falciparum cytoplasmic isoleucyl-tRNA synthetase (PfcIRS) (Plasmodium falciparum, UniProt Q8IDZ9); experiment: AMP-Glo enzymatic assay with recombinant PfcIRS; format: biochemical
T7 construct: gene PF3D7_1332900; full-length PfcIRS (1-1273), C-terminal TEV-cleavable His10-FLAG tag removed, Sf9 expressed

[6] = initial laboratory strain experiment (Table S1), read-out: P. falciparum asexual blood stage activity (IC50 uM) / Dd2
[7] = strain panel experiment (Table S2), read-out: P. falciparum asexual blood stage activity (IC50 uM) / Dd2 / IC50

T7 sequence (Q8IDZ9 entry or part of it): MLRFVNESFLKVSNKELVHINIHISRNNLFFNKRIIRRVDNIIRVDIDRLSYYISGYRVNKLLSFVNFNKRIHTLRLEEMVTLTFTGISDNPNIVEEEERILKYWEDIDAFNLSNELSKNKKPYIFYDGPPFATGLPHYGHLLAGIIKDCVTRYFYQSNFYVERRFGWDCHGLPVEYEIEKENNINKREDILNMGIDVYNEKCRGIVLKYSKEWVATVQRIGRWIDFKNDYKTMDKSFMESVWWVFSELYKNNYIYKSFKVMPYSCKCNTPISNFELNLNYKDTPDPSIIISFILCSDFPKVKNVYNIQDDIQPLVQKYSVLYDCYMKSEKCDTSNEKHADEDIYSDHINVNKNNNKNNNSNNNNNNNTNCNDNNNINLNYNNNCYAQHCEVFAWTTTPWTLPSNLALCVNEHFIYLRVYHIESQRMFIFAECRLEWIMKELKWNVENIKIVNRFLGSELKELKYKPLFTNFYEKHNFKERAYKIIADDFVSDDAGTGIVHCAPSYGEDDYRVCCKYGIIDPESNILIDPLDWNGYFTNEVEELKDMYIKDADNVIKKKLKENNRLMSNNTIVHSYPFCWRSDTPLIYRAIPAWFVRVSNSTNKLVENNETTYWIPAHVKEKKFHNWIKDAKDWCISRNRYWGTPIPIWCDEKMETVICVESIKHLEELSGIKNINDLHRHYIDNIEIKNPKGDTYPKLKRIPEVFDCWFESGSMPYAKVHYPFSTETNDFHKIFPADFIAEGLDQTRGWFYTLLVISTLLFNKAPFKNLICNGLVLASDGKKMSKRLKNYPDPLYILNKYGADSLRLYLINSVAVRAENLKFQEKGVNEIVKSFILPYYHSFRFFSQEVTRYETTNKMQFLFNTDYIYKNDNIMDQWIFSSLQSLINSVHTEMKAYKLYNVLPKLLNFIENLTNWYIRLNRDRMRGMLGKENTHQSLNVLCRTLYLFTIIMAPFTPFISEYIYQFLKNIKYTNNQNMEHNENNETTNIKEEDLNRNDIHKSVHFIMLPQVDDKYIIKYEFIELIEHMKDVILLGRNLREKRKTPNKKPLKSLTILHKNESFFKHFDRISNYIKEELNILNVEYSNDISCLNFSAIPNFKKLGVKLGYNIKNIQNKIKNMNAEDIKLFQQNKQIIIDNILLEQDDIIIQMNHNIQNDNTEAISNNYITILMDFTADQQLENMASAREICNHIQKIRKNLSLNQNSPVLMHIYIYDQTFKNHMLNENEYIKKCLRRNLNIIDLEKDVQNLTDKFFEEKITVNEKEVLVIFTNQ

Compound	IC50 [1]	IC50 (P. falciparum Dd2; [6])	IC50 (P. falciparum Dd2; [7])	IC50 (P. falciparum 3D7)	IC50 [2]	IC50 [3]	IC50 [4]	IC50 [5]
COc1ccc(-n2ncc(C(=O)N3CCC4(C3)C(=O)N(c3ccccc3)c3ccccc34)c2C)cc1 (stereo not shown) [TCMDC-134122]	1.25 µM	0.216 µM	0.394 µM	0.572 µM	1.17 µM	1.67 µM	1.78 µM	
c1ccn2c(Sc3ncnc4sccc34)ncc2c1 [TCMDC-124602]	0.313 µM	0.45 µM	0.288 µM	0.502 µM	0.354 µM	0.651 µM	0.316 µM	6590 nM
CCOc1ccc2nc(NC(=O)c3csnn3)sc2c1 [TCMDC-125075]	0.195 µM	0.206 µM	0.192 µM	0.144 µM	0.178 µM	0.16 µM	0.115 µM	
CC(C)(C)c1cc(Cl)cc(C(=O)Nc2cc([N+](=O)[O-])ccc2Cl)c1O [TCMDC-142214]	3.8 µM	3.17 µM	2.88 µM	3.65 µM	3.07 µM	3.08 µM	2.78 µM	
Cc1cccc2[nH]c(-c3ccc(-c4cccc(NC(=O)C(C)CN5CCN(C)CC5)c4)cc3)nc12 (stereo not shown) [TCMDC-137144]	1.2 µM	1.4 µM	1.39 µM	0.912 µM	2.18 µM	1.94 µM	1.39 µM	
Cc1cccc(C)c1CNc1cccc(-c2nc(C)c(C)[nH]2)c1 [TCMDC-133434]	1.33 µM	0.851 µM	1.74 µM	0.89 µM	1.22 µM	0.924 µM	1.21 µM	
COc1cc(-c2[nH]c(C(C)(C)CN)nc2-c2ccncc2)ccc1Br [TCMDC-140674]	0.501 µM	0.244 µM	0.341 µM	0.688 µM	1.07 µM	1.85 µM	0.532 µM	
Cc1cccc2[nH]c(-c3cccc(-c4cccc(NC(=O)CCc5c[nH]cn5)c4)c3)nc12 [TCMDC-132158]	0.654 µM	0.609 µM	0.932 µM	0.616 µM	1.82 µM	1.72 µM	0.757 µM	
CC(C)(CN)c1cc(-c2ccc(Cl)c(O)c2)c(-c2ccncc2)o1 [TCMDC-141334]	0.676 µM	0.414 µM	0.485 µM	0.446 µM	0.537 µM	0.974 µM	0.644 µM	
